Laboratory results as given in paper PMC7827406, “Structure–Activity Relationship (SAR) Study of Spautin-1 to Entail the Discovery of Novel NEK4 Inhibitors” (International Journal of Molecular Sciences, 2021).
Like-named read-outs stand apart in the source and are kept apart here.

How the values were obtained:
Assay in all cases: biochemical
Design in all cases: Eurofins KinaseProfiler full panel at Km ATP, residual kinase activity (%) relative to DMSO
PI3 Kinase (p120g)(h) = biological target: T1, PI3 Kinase (p120g)(h) (Homo sapiens, UniProt P48736)
T1 construct: gene PIK3CG
How it was run: (§1)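 Radiometric kinase activity assays were run with ATP at Km and compounds at 10 µM, and remaining activity (%) was reported. A separate competitive binding screen measured DNA-tagged kinase displaced from immobilized active-site ligands by qPCR, giving percent kinase still bound at 10 µM compound in DMSO.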

TrkB(h) = biological target: T2, TrkB(h) (Homo sapiens, UniProt Q16620)
T2 construct: gene NTRK2
How it was run: as §1

PKCζ(h) = biological target: T3, PKCζ(h) (Homo sapiens, UniProt Q05513)
T3 construct: gene PRKCZ
T3 sequence (Q05513 1-592): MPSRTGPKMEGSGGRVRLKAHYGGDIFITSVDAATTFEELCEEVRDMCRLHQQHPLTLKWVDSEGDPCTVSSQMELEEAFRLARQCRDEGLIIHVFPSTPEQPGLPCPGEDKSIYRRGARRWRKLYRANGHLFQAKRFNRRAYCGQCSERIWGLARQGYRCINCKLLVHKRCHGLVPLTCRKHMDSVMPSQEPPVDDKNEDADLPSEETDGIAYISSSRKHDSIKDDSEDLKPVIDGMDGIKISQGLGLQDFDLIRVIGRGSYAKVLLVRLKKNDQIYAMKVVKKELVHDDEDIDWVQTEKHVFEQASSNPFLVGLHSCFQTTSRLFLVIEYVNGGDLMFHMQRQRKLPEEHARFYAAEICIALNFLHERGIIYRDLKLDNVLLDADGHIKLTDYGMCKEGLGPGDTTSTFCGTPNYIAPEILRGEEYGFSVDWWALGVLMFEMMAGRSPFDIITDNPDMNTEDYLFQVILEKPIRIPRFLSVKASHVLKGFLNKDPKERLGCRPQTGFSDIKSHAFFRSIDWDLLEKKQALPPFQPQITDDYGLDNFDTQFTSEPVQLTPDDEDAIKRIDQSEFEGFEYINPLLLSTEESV
How it was run: as §1

MEKK3(h) = biological target: T4, MEKK3(h) (Homo sapiens, UniProt Q99759)
T4 construct: gene MAP3K3
T4 sequence (Q99759 1-626): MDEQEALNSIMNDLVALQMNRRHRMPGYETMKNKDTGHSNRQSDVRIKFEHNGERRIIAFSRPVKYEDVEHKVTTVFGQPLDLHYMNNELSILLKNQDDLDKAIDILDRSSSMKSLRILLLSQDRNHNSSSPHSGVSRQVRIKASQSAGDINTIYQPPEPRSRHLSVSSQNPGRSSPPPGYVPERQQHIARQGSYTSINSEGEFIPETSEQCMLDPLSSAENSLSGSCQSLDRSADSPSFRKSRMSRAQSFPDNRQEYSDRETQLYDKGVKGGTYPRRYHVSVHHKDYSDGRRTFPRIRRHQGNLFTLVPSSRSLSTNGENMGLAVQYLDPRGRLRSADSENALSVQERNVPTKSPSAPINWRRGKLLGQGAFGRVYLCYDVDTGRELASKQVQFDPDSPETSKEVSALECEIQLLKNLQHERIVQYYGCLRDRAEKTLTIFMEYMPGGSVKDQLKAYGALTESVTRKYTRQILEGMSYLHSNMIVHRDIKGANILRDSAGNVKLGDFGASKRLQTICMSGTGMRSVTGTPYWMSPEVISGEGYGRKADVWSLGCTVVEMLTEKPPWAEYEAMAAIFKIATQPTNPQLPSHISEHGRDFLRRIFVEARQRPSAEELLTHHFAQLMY
How it was run: as §1

JAK1(h) = JAK1(h) (Homo sapiens, UniProt P23458)
How it was run: as §1

PAR-1Bα(h) = biological target: T5, PAR-1Bα(h) (Homo sapiens, UniProt Q7KZI7)
T5 construct: gene MARK2
How it was run: as §1

[1] = biological target: T6, PI3 Kinase (p110a(E545K)/p85a)(h) (Homo sapiens, UniProt P42336, E545K)
T6 construct: gene PIK3CA
How it was run: as §1

JAK2(h) = JAK2(h) (Homo sapiens, UniProt O60674)
How it was run: as §1

[2] = read-out: Residual activity (%) 5at
[3] = read-out: Residual activity (%) 5as
[4] = read-out: Residual activity (%) 5ay
[5] = read-out: Residual activity (%) Spautin-1 5aa

T2 sequence (Q16620 whole entry): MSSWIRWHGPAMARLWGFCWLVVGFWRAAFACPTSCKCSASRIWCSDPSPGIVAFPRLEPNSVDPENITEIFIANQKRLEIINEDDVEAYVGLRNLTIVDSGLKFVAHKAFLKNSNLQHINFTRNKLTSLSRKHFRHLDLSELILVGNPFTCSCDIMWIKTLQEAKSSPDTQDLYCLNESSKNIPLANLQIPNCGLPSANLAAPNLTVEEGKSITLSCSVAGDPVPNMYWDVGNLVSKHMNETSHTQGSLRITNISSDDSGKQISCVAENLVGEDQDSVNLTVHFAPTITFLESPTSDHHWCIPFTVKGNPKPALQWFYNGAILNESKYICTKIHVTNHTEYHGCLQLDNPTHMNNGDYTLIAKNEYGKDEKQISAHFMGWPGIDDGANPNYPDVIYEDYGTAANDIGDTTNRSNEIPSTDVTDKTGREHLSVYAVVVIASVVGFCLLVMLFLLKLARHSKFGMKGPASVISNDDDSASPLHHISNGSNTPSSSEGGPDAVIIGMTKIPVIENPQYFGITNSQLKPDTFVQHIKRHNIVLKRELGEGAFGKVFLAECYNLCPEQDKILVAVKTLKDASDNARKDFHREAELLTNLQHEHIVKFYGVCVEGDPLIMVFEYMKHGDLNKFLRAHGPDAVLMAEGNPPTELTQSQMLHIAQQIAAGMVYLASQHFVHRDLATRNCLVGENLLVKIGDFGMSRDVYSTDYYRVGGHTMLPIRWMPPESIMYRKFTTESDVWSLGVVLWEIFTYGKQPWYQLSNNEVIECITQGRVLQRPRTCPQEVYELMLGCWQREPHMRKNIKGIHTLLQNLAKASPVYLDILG
T1 sequence (P48736 whole entry): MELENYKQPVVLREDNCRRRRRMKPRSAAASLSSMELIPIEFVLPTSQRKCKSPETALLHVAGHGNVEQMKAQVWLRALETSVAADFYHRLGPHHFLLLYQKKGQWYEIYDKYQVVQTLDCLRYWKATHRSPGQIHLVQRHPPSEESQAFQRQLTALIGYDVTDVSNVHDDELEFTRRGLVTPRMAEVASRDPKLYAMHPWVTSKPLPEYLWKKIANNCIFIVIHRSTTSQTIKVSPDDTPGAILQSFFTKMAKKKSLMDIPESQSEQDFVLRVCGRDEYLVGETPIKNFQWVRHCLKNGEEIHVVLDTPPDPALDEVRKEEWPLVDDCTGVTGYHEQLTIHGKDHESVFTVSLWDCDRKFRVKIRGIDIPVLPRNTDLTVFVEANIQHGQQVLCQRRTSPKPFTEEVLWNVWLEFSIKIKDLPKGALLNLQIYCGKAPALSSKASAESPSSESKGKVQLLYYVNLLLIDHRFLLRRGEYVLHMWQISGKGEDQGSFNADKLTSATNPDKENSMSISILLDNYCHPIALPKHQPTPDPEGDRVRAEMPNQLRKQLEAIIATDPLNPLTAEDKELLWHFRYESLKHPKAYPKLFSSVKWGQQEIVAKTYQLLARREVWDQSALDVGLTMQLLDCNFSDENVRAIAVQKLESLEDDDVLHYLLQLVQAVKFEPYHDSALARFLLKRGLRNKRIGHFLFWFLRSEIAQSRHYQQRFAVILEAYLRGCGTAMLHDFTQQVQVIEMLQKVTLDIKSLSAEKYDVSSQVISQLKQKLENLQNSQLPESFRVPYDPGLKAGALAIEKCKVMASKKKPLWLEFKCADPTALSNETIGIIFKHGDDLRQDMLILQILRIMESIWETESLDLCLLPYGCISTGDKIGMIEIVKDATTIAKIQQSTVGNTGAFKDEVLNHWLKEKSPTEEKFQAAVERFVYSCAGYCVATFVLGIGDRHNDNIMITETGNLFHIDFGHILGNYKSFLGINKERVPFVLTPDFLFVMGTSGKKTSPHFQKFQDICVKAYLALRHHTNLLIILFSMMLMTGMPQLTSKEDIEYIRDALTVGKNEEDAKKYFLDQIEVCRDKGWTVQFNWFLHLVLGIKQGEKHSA
JAK1(h), sequence (P23458 whole entry): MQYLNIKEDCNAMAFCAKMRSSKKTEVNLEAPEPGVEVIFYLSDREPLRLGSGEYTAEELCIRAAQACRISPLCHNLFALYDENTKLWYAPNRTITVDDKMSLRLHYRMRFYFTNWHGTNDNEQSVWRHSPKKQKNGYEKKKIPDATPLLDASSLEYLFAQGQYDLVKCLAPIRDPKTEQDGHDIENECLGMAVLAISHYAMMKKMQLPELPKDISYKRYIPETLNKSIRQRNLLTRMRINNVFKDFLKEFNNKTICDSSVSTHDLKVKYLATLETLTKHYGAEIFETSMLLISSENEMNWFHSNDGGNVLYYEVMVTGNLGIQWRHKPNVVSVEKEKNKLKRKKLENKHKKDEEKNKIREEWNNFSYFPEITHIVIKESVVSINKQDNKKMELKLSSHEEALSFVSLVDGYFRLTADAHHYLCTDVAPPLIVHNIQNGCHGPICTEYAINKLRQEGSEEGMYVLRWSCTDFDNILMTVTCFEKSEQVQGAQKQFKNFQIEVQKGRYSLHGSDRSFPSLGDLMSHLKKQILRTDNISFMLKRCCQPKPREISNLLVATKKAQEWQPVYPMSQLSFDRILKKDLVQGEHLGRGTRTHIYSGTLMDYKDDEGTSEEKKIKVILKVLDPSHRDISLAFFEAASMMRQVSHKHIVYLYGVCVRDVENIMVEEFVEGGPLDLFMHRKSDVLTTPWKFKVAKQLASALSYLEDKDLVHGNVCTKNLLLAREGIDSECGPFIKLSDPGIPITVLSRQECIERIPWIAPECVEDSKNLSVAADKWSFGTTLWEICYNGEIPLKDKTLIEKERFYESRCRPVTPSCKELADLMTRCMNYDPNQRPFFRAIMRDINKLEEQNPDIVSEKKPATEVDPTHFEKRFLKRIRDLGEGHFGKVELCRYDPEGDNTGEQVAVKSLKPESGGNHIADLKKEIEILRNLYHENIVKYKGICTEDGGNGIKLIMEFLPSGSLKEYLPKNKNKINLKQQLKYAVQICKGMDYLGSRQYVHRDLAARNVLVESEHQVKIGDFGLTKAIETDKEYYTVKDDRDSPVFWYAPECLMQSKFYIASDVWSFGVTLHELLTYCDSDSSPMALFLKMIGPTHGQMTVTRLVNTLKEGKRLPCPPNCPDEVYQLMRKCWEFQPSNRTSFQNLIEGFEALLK
JAK2(h), sequence (O60674 whole entry): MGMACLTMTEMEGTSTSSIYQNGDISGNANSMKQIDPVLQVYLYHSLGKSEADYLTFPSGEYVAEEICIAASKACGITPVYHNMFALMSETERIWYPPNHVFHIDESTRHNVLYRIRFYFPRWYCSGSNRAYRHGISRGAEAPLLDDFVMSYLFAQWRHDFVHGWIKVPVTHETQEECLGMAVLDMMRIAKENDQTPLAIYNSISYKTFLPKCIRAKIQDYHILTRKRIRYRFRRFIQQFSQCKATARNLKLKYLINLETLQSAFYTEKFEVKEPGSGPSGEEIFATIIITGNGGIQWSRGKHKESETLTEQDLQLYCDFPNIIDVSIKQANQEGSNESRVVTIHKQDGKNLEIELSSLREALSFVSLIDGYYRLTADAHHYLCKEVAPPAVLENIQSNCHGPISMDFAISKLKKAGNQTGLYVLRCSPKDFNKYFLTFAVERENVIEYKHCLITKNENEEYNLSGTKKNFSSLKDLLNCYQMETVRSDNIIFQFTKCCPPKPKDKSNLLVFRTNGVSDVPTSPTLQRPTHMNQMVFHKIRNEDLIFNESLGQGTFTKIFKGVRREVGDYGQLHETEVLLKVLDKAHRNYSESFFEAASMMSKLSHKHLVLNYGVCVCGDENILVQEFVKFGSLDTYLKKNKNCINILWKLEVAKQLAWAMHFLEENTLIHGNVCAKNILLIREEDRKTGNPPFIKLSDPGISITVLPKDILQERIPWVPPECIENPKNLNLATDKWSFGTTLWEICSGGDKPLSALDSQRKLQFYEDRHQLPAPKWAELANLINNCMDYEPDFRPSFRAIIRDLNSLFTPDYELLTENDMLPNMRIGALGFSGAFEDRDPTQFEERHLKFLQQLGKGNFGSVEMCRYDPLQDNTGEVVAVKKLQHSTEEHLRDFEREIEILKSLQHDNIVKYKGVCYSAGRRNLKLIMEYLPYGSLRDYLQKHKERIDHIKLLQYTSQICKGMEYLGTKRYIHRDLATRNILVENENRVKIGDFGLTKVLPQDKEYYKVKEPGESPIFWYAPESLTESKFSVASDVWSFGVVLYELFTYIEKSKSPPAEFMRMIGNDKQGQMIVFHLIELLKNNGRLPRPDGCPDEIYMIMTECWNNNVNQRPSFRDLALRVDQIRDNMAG
T5 sequence (Q7KZI7 whole entry): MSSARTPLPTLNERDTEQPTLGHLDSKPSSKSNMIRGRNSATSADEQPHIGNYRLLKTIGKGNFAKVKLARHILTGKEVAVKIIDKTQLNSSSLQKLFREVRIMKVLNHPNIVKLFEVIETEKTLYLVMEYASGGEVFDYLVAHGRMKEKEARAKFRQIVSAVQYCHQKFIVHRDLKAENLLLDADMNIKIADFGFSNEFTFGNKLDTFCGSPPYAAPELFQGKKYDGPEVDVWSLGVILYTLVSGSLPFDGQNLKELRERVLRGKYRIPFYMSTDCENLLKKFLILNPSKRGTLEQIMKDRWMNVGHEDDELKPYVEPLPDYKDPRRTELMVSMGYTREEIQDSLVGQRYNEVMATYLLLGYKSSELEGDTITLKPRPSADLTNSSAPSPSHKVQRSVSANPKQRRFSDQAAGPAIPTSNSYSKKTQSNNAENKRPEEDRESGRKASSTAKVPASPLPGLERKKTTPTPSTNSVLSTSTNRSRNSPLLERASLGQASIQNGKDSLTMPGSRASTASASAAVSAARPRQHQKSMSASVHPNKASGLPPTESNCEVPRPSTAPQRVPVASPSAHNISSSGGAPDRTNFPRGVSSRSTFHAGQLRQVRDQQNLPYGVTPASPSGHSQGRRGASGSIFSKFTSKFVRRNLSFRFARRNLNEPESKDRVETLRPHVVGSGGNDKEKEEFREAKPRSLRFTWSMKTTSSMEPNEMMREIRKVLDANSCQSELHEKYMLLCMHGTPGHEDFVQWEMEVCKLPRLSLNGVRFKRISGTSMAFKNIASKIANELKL

Structure (SMILES): Fc1ccc2ncnc(NCCc3ccc(Cl)cc3)c2c1 [5at, N-[2-(4-Chlorophenyl)Ethyl]-6-Fluoro-4-Quinazolinamine]
- remaining activity at 10 µM (PI3 Kinase (p120g)(h); [2]): 90%
- remaining activity at 10 µM (TrkB(h); [2]): 81%
- remaining activity at 10 µM (PKCζ(h); [2]): 71%
- remaining activity at 10 µM (MEKK3(h); [2]): 98%
- remaining activity at 10 µM (JAK1(h); [2]): 99%
- remaining activity at 10 µM (PAR-1Bα(h); [2]): 101%
- remaining activity at 10 µM [1, 2]: 91%
- remaining activity at 10 µM (JAK2(h); [2]): 86%

Structure (SMILES): Fc1ccc(CCNc2ncnc3ccc(F)cc23)cc1 [5as, 6-Fluoro-N-[2-(4-Fluorophenyl)Ethyl]-4-Quinazolinamine]
- remaining activity at 10 µM (PI3 Kinase (p120g)(h); [3]): 92%
- remaining activity at 10 µM (TrkB(h); [3]): 81%
- remaining activity at 10 µM (PKCζ(h); [3]): 75%
- remaining activity at 10 µM (MEKK3(h); [3]): 107%
- remaining activity at 10 µM (JAK1(h); [3]): 93%
- remaining activity at 10 µM (PAR-1Bα(h); [3]): 86%
- remaining activity at 10 µM [1, 3]: 93%
- remaining activity at 10 µM (JAK2(h); [3]): 93%

Structure (SMILES): COc1ccc2ncnc(Nc3cccc(F)c3)c2c1 [5ay, N-(3-Fluorophenyl)-6-Methoxy-4-Quinazolinamine]
- remaining activity at 10 µM (PI3 Kinase (p120g)(h); [4]): 91%
- remaining activity at 10 µM (TrkB(h); [4]): 96%
- remaining activity at 10 µM (PKCζ(h); [4]): 91%
- remaining activity at 10 µM (MEKK3(h); [4]): 83%
- remaining activity at 10 µM (JAK1(h); [4]): 90%
- remaining activity at 10 µM (PAR-1Bα(h); [4]): 83%
- remaining activity at 10 µM [1, 4]: 81%
- remaining activity at 10 µM (JAK2(h); [4]): 108%

Structure (SMILES): Fc1ccc(CNc2ncnc3ccc(F)cc23)cc1 [5aa, 6-Fluoro-N-(4-fluorobenzyl)-4-Quinazolinamine]
- remaining activity at 10 µM (PI3 Kinase (p120g)(h); [5]): 91%
- remaining activity at 10 µM (TrkB(h); [5]): 87%
- remaining activity at 10 µM (PKCζ(h); [5]): 85%
- remaining activity at 10 µM (MEKK3(h); [5]): 93%
- remaining activity at 10 µM (JAK1(h); [5]): 117%
- remaining activity at 10 µM (PAR-1Bα(h); [5]): 84%
- remaining activity at 10 µM [1, 5]: 96%
- remaining activity at 10 µM (JAK2(h); [5]): 91%
